pIC50: −log10 of the molar value.

In this experiment the target is T1, Syk catalytic domain (aa 356-635 with a C-terminal His-tag) (Homo sapiens, UniProt P43405).
T1 construct: His-tag (C); made in house
Kind of experiment: In vitro Syk kinase activity measured by trFRET, Syk catalytic domain. The conditions noted are these: Syk catalytic domain (aa 356-635), trFRET, 0.001 mM ATP. Type of experiment: biochemical. In outline:
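Kinase reaction: 0.14 nM His-tagged catalytic domain, 0.2 μM biotin-TYR1 peptide, 0.001 mM ATP in 50 mM MOPSO pH 6.5 with MgCl2, MnCl2, DTT, BSA, vanadate, ~60 min at rt, then EDTA quench. Phosphoproduct detected by trFRET (Eu anti-pTyr antibody/streptavidin-APC, 665 nm emission); IC50 from signal in linear range.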
For `Cn1ccc2cc(-c3cc4c(ncc5cnn(C)c54)[nH]3)ccc21` [N.1.46], the pIC50 (commonly −log10 of the IC50, conventionally taken in molar units) was 6.00 to 7.00.

`Cc1ccc(-c2cc3c(ncc4cnn(C)c43)[nH]2)c(C)c1` [N.1.47] gave a negative logarithm of the IC50 (pIC50) of 5.00 to 6.00.

As to `COc1ccc2c(c1)c(-c1nc(C3CCCCC3)n3c1cnc1[nH]ccc13)cn2C` [N.1.48], the pIC50 is 5.00 to 6.00.

In turn, `CC(C)(O)c1ccc(-c2nc(C3CCCCC3)n3c2cnc2[nH]ccc23)cc1` [N.1.49] gave a pIC50 of more than 7.00.

`Cc1nc(-c2ccc(C(C)(C)O)cc2)c2cnc3[nH]ccc3n12` [N.1.50, 2-(4-(1-methyl-6H-imidazo[1,5-a]pyrrolo[2,3-e]pyrazin-3-yl)phenyl)propan-2-ol]: the pIC50 is more than 7.00.

The compound `CC(C)(O)c1ccc(-c2nc(C3CC[C@H](NS(=O)(=O)C4CC4)C3)n3c2cnc2[nH]ccc23)cc1` (some centres unmarked) [N.1.51] showed a pIC50 of more than 7.00.

For `C=C(C)c1ccc(-c2nc(C3CC[C@H](NS(=O)(=O)C4CC4)C3)n3c2cnc2[nH]ccc23)cc1` (some centres unmarked) [N.1.52], the pIC50 was 6.00 to 7.00.

In turn, `CC(C)(O)c1ccc(-c2ncn3c2cnc2[nH]ccc23)cc1` [N.1.53] showed a pIC50 of more than 7.00.

For the compound `COc1ccc(-c2nc(C)n3c2cnc2[nH]ccc23)cc1` [N.1.54], the pIC50 is more than 7.00.

Compound `COc1ccc2c(c1)c(-c1nc(C)n3c1cnc1[nH]ccc13)cn2C` [N.1.55] had a pIC50 of 6.00 to 7.00.

`Cc1ccc(-c2nc(C)n3c2cnc2[nH]ccc23)c2cc[nH]c12` [N.1.57]: the pIC50 is 5.00 to 6.00.

Turning to `CC(C)(O)c1ccc(-c2nc(C(F)(F)F)n3c2cnc2[nH]ccc23)cc1` [N.1.58], the pIC50 is 6.00 to 7.00.

In the case of `CN(C)c1nc(-c2ccc(C(C)(C)O)cc2)c2cnc3[nH]ccc3n12` [N.1.59], the pIC50 was more than 7.00.

With `CCc1c[nH]c2ncc3c(-c4ccc(C(C)(C)O)cc4)nn(C)c3c12` [N.1.60], the negative logarithm of the IC50 (pIC50) was 5.00 to 6.00.

Turning to `CS(=O)(=O)c1ccc(-c2nc([C@H]3CCCNC3)n3c2cnc2[nH]ccc23)cc1` [N.1.61], the pIC50 was 6.00 to 7.00.

For `CS(=O)(=O)c1ccc(-c2nc(C3CCCN(C(=O)CCO)C3)n3c2cnc2[nH]ccc23)cc1` (centres unmarked) [N.1.62], the pIC50 is 5.00 to 6.00.

`COCCC(=O)N1CCCC(c2nc(-c3ccc(S(C)(=O)=O)cc3)c3cnc4[nH]ccc4n23)C1` (centres unmarked) [N.1.63] had a pIC50 of 5.00 to 6.00.

`CN(C)CC1CCN(c2nc(-c3ccc(S(C)(=O)=O)cc3)c3cnc4[nH]ccc4n23)C1` (centres unmarked) [N.1.64] had a pIC50 of 5.00 to 6.00.

For `CC(C)(O)c1ccc(-c2nc(N3CCC(CN)C3)n3c2cnc2[nH]ccc23)cc1` (centres unmarked) [N.1.66], the pIC50 was more than 7.00.

For the compound `CCc1c[nH]c2ncc3c(-c4ccc(OC)c(F)c4)nn(C)c3c12` [N.1.67], the pIC50 was 6.00 to 7.00.

Turning to `CCc1c[nH]c2ncc3c(-c4ccc5nccnc5c4)nn(C)c3c12` [N.1.68], the negative-log IC50 (pIC50) is 5.00 to 6.00.

`CCc1c[nH]c2ncc3c(-c4ccc(OC(C)C)cc4)nn(C)c3c12` [N.1.69] showed a pIC50 of 6.00 to 7.00.

In turn, `CCc1c[nH]c2ncc3c(-c4ccc(C(=O)NC5CC5)cc4)nn(C)c3c12` [N.1.70] gave a pIC50 of 6.00 to 7.00.

Take `CCc1c[nH]c2ncc3c(-c4ccc(CO)cc4)nn(C)c3c12` [N.1.71]: the pIC50 was 6.00 to 7.00.

Compound `CCc1c[nH]c2ncc3c(-c4ccc(S(N)(=O)=O)cc4)nn(C)c3c12` [N.1.72] gave a pIC50 of 6.00 to 7.00.

Compound `CCc1c[nH]c2ncc3c(-c4ccsc4)nn(C)c3c12` [N.1.73] gave a negative logarithm of the IC50 (pIC50) of 6.00 to 7.00.

Take `CCc1c[nH]c2ncc3c(-c4ccc(OC)cc4)nn(C)c3c12` [N.1.74]: the negative logarithm of the IC50 (pIC50) was 5.00 to 6.00.

For `CCc1c[nH]c2ncc3c(-c4cccnc4)nn(C)c3c12` [N.1.75], the pIC50 is 5.00 to 6.00.

In turn, `CCc1c[nH]c2ncc3c(-c4cnn(C)c4)nn(C)c3c12` [N.1.76] gave a negative-log IC50 (pIC50) of 6.00 to 7.00.

As for `CCc1c[nH]c2ncc3c(-c4cc(OC)c(OC)c(OC)c4)nn(C)c3c12` [N.1.77], the pIC50 is 5.00 to 6.00.

Compound `CCc1c(-c2ccc(OCCOC)cc2)[nH]c2ncc3cnn(C)c3c12` [N.1.79] showed a negative-log IC50 (pIC50) of 6.00 to 7.00.

In turn, `CCc1c(-c2ccc(OCCN(C)C)cc2)[nH]c2ncc3cnn(C)c3c12` [N.1.80] showed a pIC50 of 5.00 to 6.00.

The compound `COc1ccc2c(c1)c(-c1cc3c(ncc4cnn(C)c43)[nH]1)cn2C(C)C` [N.1.81] had a pIC50 of 6.00 to 7.00.

`CC(C)n1cc(-c2cc3c(ncc4cnn(C)c43)[nH]2)c2ccccc21` [N.1.82] gave a pIC50 of 6.00 to 7.00.

`COc1ccc2c(c1)c(-c1cc3c(ncc4cnn(C)c43)[nH]1)nn2C` [N.1.83] had a pIC50 of 6.00 to 7.00.

For the compound `CC(C)(O)c1ccc(-c2nc(C3CCOCC3)n3c2cnc2[nH]ccc23)cc1` [N.1.84], the pIC50 was 6.00 to 7.00.

As for `COc1ccc(-c2nc(N3CCN(C)CC3)n3c2cnc2[nH]ccc23)cc1` [N.1.85], the pIC50 was 5.00 to 6.00.

In turn, `COc1ccc(-c2nc(C3CCN(C)CC3)n3c2cnc2[nH]ccc23)cc1` [N.1.86] had a pIC50 of 5.00 to 6.00.

Compound `COc1ccc(-c2nc(C3CC3)n3c2cnc2[nH]ccc23)cc1` [N.1.87] showed a pIC50 of more than 7.00.

Compound `COCCc1nc(-c2ccc(OC)cc2)c2cnc3[nH]ccc3n12` [N.1.88] gave a negative-log IC50 (pIC50) of 6.00 to 7.00.

Compound `COc1ccc(-c2nc(CN(C)C)n3c2cnc2[nH]ccc23)cc1` [N.1.89] gave a pIC50 of 5.00 to 6.00.

`CS(=O)(=O)c1ccc(-c2ncn3c2cnc2[nH]ccc23)cc1` [N.1.90]: the pIC50 is more than 7.00.

As to `COc1ccc(-c2nc(C(C)C)n3c2cnc2[nH]ccc23)cc1` [N.1.91], the pIC50 is 6.00 to 7.00.

For the compound `CCCc1nc(-c2ccc(OC)cc2)c2cnc3[nH]ccc3n12` [N.1.92], the negative logarithm of the IC50 (pIC50) was more than 7.00.

Compound `COc1ccc(-c2nc(CNC3CCCCC3O)n3c2cnc2[nH]ccc23)cc1` (centres unmarked) [N.1.93] gave a pIC50 of 5.00 to 6.00.

With `CS(=O)(=O)c1ccc(-c2nc(CC3CNCCO3)n3c2cnc2[nH]ccc23)cc1` (centres unmarked) [N.1.94], the pIC50 is 6.00 to 7.00.

Take `CN1CCN(C(=O)CCO)C[C@@H]1c1nc(-c2ccc(C(C)(C)O)cc2)c2cnc3[nH]ccc3n12` [N.1.95]: the pIC50 is 6.00 to 7.00.

`CN1CCN(Cc2nc(-c3ccc(C(C)(C)O)cc3)c3cnc4[nH]ccc4n23)CC1` [N.1.96] gave a pIC50 of 5.00 to 6.00.

The compound `CC(C)(O)c1ccc(-c2nc(CN3CCCNCC3)n3c2cnc2[nH]ccc23)cc1` [N.1.97] showed a negative-log IC50 (pIC50) of 6.00 to 7.00.

`COc1ccc(-c2ncn3c2cnc2[nH]ccc23)cc1` [N.1.98] gave a pIC50 of more than 7.00.

Regarding `Cc1nc(-c2ccc(C3(O)CCN(C(=O)OC(C)(C)C)CC3)cc2)c2cnc3[nH]ccc3n12` [N.1.99], the negative-log IC50 (pIC50) was more than 7.00.

The compound `Cn1cc(-c2cc3c(ncc4cnn(C)c43)[nH]2)c2cnccc21` [N.1.100] showed a pIC50 of 6.00 to 7.00.

In the case of `Cn1cc(-c2cc3c(ncc4cnn(C)c43)[nH]2)c2cc(C(C)(C)O)ccc21` [N.1.101], the pIC50 was more than 7.00.

`Cc1nc(-c2ccc(C(C)(C)O)cc2F)c2cnc3[nH]ccc3n12` [N.1.102] gave a pIC50 of 6.00 to 7.00.

The compound `Cc1nc(-c2ccc(C(C)(C)O)cc2Cl)c2cnc3[nH]ccc3n12` [N.1.103] had a pIC50 of 5.00 to 6.00.

`Cc1cc(C(C)(C)O)ccc1-c1nc(C)n2c1cnc1[nH]ccc12` [N.1.104] gave a negative logarithm of the IC50 (pIC50) of 5.00 to 6.00.

Turning to `COc1ccc(-c2nc(CCN(C)C)n3c2cnc2[nH]ccc23)cc1` [N.1.105], the negative-log IC50 (pIC50) was 5.00 to 6.00.

Compound `COc1ccc(-c2nnn3c2cnc2[nH]ccc23)cc1` [N.1.107] gave a pIC50 of 6.00 to 7.00.

`Cc1nc(-c2ccc(C(C)(C)O)c(Cl)c2)c2cnc3[nH]ccc3n12` [N.1.108] had a pIC50 of more than 7.00.

As to `CC(C)(O)c1ccc(-c2nc(-c3ccccc3CO)n3c2cnc2[nH]ccc23)cc1` [N.1.109], the pIC50 is more than 7.00.

The compound `CC(C)(O)c1ccc(-c2ncn3c2cnc2[nH]cc(CO)c23)cc1` [N.1.110] gave a pIC50 of 6.00 to 7.00.

On to `Cc1ccc2c(c1)c(-c1cc3c(ncc4cnn(C)c43)[nH]1)cn2C` [N.1.111], for which the pIC50 is more than 7.00.

Turning to `Cn1cc(-c2cc3c(ncc4cnn(C)c43)[nH]2)c2cc(OCCN3CCOCC3)ccc21` [N.1.112], the pIC50 is more than 7.00.

In turn, `COc1ccc(-c2nc(CO)n3c2cnc2[nH]ccc23)cc1` [N.1.113] gave a pIC50 of 6.00 to 7.00.

Regarding `COc1ccc(-c2nc(CNC3CC3)n3c2cnc2[nH]ccc23)cc1` [N.1.114], the pIC50 is 5.00 to 6.00.

The compound `Cc1cc(-c2cc3c(ncc4cnn(C)c43)[nH]2)ccc1N1CCN(C)CC1` [N.1.115] gave a pIC50 of more than 7.00.

In the case of `COc1ccc2c(n1)c(-c1cc3c(ncc4cnn(C)c43)[nH]1)cn2C` [N.1.116], the pIC50 was 6.00 to 7.00.

In turn, `Cn1cc(-c2cc3c(ncc4cnn(C)c43)[nH]2)c2nccnc21` [N.1.117] had a pIC50 of 6.00 to 7.00.

The compound `Cn1ncc2cnc3[nH]c(-c4ccncc4)cc3c21` [N.2.1] gave a pIC50 of 6.00 to 7.00.

As for `Cn1ncc2cnc3[nH]c(-c4cccnc4)cc3c21` [N.2.2], the pIC50 is 6.00 to 7.00.

With `CN(C)CCOc1ccc(-c2cc3c(ncc4cnn(C)c43)[nH]2)cc1` [N.2.3], the pIC50 is 6.00 to 7.00.

In turn, `Cn1ncc2cnc3[nH]c(-c4ccc(OCCN5CCOCC5)cc4)cc3c21` [N.2.4] gave a pIC50 of more than 7.00.

Regarding `Cn1ncc2cnc3[nH]c(-c4ccc(OCCCN5CCOCC5)cc4)cc3c21` [N.2.5], the pIC50 is more than 7.00.

`Cn1ncc2cnc3[nH]c(-c4cccc5ncccc45)cc3c21` [N.2.6] showed a pIC50 of 5.00 to 6.00.

For `Cn1ncc2cnc3[nH]c(-c4ccc5ncccc5c4)cc3c21` [N.2.7], the pIC50 was 6.00 to 7.00.

Compound `Cn1ncc2cnc3[nH]c(-c4ccc5nccnc5c4)cc3c21` [N.2.8] showed a negative-log IC50 (pIC50) of 6.00 to 7.00.

For `COc1ccc2c(c1)c(-c1cc3c(ncc4cnn(C)c43)[nH]1)cn2CC(=O)N1CCOCC1` [N.2.9], the pIC50 was more than 7.00.

Turning to `COc1ccc2c(c1)c(-c1cc3c(ncc4cnn(C)c43)[nH]1)cn2CCN1CCOCC1` [N.2.11], the pIC50 was more than 7.00.

The compound `COc1ccc2c(c1)c(-c1cc3c(ncc4cnn(C)c43)[nH]1)cn2CCO` [N.2.12] showed a pIC50 of more than 7.00.

Compound `COc1ccc2c(c1)c(-c1cc3c(ncc4cnn(C)c43)[nH]1)cn2CCN(C)C` [N.2.13] had a pIC50 of 6.00 to 7.00.
